Results on 6 compounds are retold here after patent publication US6087334A, “Anti-diabetic peptides” (Amylin Pharmaceuticals, Inc., priority 1998, dated 2000).

Like-named read-outs stand apart in the source and are kept apart here. Where a SMILES comes first, the peptide text is derived from it. Bridges are numbered along the chain shown (N, C = ends). Where no end group is shown, it is not given here.

The subject of assay [1] is gastric emptying in conscious rats. The settings on record: for Inhibition of gastric emptying (in words): conscious rat model. An excerpt:
Peptide compounds of the present invention may be evaluated for amylin agonist activity using the methods of measuring the rate of gastric emptying disclosed in, for example, Young et al., Diabetologia, 38(6):642-648 (1995). In a phenol red method, which is described in Example D below, conscious rats receive by gavage an a caloric gel containing methyl cellulose and a phenol red indicator. Twenty minutes after gavage, animals are anesthetized using halothane, the stomach exposed and clamped at the pyloric and lower esophageal sphincters, removed and opened into an alkaline solution. Stomach content may be derived from the intensity of the phenol red in the alkaline solution, measured by absorbance at a wavelength of 560 nm. In a tritiated glucose method, conscious rats are gavaged with tritiated glucose in water. The rats are gently restrained by the tail, the tip of which is anesthetized using lidocaine. Tritium in the plasma separated from tail blood is collected at various timepoints and detected in a beta counter. Test compounds are normally administered about one minute before gavage.
Phenol Red Gastric Emptying Assay:
Gastric emptying was measured using a modification (Plourde et al., Life Sci. 53:857-862 (1993)) of the original method of Scarpignato et al. (Arch. Int. Pharmacodyn. Ther. 246:286-295 (1980)). Conscious rats received by gavage. 1.5 mL of an a caloric gel containing 1.5% methyl cellulose (M-0262, Sigma Chemical Co., St. Louis, Mo.) and 0.05% phenol red indicator. Twenty minutes after gavage, rats were anesthetized using 5% halothane, the stomach exposed and clamped at the pyloric and lower esophageal sphincters using artery forceps, removed and opened into an alkaline solution which was made up to a fixed volume. Stomach content was derived from the intensity of the phenol red in the alkaline solution, measured by absorbance at a wavelength of 560 nm. […] In other experiments, particulate gastric contents were centrifuged to clear the solution for absorbance measurements. Where the diluted gastric contents remained turbid, the spectroscopic absorbance due to phenol red was derived as the difference between that present in alkaline versus acidified dilutent.
In separate experiments on 7 rats, the stomach and small intestine were both excised and opened into an alkaline solution. […] Percent gastric emptying contents remaining=(absorbance at 20 min)/(absorbance at 0 min). For those compounds for which ED50 data is presented, dose response curves for gastric emptying were fitted to a 4-parameter logistic model using a least-squares iterative routine (ALLFIT, v2.7, NIH, Bethesda, Md.) to derive ED50 s. Because ED50 is log-normally distributed, it is expressed ± standard error of the logarithm. Pairwise comparisons were performed using one-way analysis of variance and the Student-Newman-Keuls multiple comparisons test (Instat v2.0, GraphPad Software, San Diego, Calif.) using P<0.05 as the level of significance.
As a reference point for dose response studies, rat amylin (Bachem, Torrance, Calif.) dissolved in 0.15M saline, was administered as a 0.1 mL subcutaneous bolus in doses of 0, 0.01, 0.1, 1, 10 or 100 μg 5 minutes before gavage in Harlan Sprague Dawley (non-diabetic) rats fasted 20 hours and diabetic BB rats fasted 6 hours.

For assay [2] the following is noted: in vivo in rats, rabbits and humans with Paget's disease; cited from earlier work.
For assay [3], the target named is T1, C1a receptor (C1a-type calcitonin receptor) (Rattus norvegicus, UniProt P32214).
T1 construct: expressed in transfected cells
T1 sequence (P32214 25-479 isoform P32214-2 limits assumed): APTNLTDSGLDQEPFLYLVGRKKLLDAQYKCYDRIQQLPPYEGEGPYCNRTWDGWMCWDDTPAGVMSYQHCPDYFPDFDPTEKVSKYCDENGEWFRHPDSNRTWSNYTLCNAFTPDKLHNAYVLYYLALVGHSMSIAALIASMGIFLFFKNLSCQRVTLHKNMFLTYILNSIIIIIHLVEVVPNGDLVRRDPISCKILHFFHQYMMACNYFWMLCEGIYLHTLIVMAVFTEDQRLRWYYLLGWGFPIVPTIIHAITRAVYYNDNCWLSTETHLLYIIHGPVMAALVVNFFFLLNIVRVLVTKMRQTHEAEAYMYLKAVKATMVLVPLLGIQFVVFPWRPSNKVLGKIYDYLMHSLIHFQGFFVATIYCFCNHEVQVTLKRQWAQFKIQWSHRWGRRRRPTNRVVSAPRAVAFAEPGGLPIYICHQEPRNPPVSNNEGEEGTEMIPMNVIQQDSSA
In words: biochemical. The settings on record: HEK293 plasma membranes, [35S]-GTPγS 200 pM; read-out: ED50 (nM) Example B (C1a GTPγS). An excerpt:
Peptide compounds of the present invention may be evaluated for agonist activity using the procedures described in Example B. The plasma membrane preparation of a 7-transmembrane-G-protein coupled receptor (GPCR) contains not only the receptor but also the G-proteins which constitute the first step in the intracellular signal transduction process when the receptor is activated by an agonist ligand. […] Agonist activation of a GPCR is accompanied by displacement of GDP by GTP from this site. Thus, measurement of the binding of a radiolabelled ligand, namely [^35 S]-GTPγS, for this binding site constitutes a measure of agonist potency for a given ligand. For agonism at the C1a receptor, a similar membrane preparation to that described below for the C1a binding studies is used. C1a pcDNA construction and transfection were carried out as previously described (Albrandt et al. 1993, FEBS Letters, 325:225-232). HEK293 cell lines showing stable expression of the rat C1a-type calcitonin receptor (C1a/293) or the human C1a-type calcitonin receptor (1154/293) were selected by G418 resistance and limiting dilution culture methods. Plasma membranes were collected from homogenized HEK293 cells and used in the [^35 S]-GTPγS assay. Individual test peptides at concentrations spanning 6 log units starting at around […] were examined for their ability to bind [^35 S]-GTPγS. Maximum agonist-specific binding was measured in the presence of 1 μM human calcitonin, constitutive binding was measured in the presence of buffer alone. Peptide potencies (EC50 's for concentration response curves) were calculated by non-linear regression using Prism™ (version 2.01, GraphPAD Software, San Diego, Calif.).
[^35 S]-GTPγS C1a Agonist Studies
Evaluation of the agonist activity of compounds versus the C1a receptor was carried out as follows:
(§1) Reference peptides used in these studies were purchased from Bachem (Torrance, Calif.). All other chemicals were of the highest commercial grade. [^35 S]-GTPγS was purchased from NEN Life Science Products, Inc., Pittsburgh, Pa. [^125 I]-human calcitonin was purchased from Amersham Pharmacia Biotech, Inc., Piscataway, N.J.
Methods for C1a pcDNA construction and transfection have been previously described (Albrandt, et al. 1993, FEBS Letters, 325:225-232). HEK293 cell lines stably expressing the rat C1a-type calcitonin receptor (C1a/293) or the human C1a-type calcitonin receptor (1154/293) were selected by G418 resistance and limiting dilution culture methods.
(§2) Confluent cells were detached from tissue culture flasks by incubation with 5 mM EDTA in PBS. Cells were homogenized in ice-cold 20 mM HEPES, pH 7.4 with a Polytron homogenizer. Plasma membranes were collected using three cycles of washing in fresh buffer followed by centrifugation for 15 minutes at 48,000×g. The final membrane pellet was resuspended in 20 mM HEPES buffer containing 0.2 mM phenylmethylsulfonyl fluoride (PMSF) and stored at -70° C.
Assay buffer contained 1 μM GDP, 1 mM EDTA, 5 mM MgCl2, 20 mM Hepes, and 150 mM NaCl, pH 7.4. Membranes (7.5 μg membrane protein/well), [^35 S]-GTPγS (200 pM), and peptides were combined in 200 μL buffer in 96-well microtiter plates. After a 75 minute incubation at room temperature, well contents were harvested onto GF/B glass fiber pads using a Tomtec Mach II plate harvestor (Hamden, Conn.). Dried pads were combined with scintillant and counted on a Wallac LKB Beta Plate scintillation counter. For concentration response curves, samples were run in duplicate over a 6 log concentration range starting at 10^-6 M or 10^-7 M. Maximum agonist-specific binding was measured in the presence of 1 μM human calcitonin, constitutive binding was measured in the presence of buffer alone.
Peptide potencies (1C50 's for competitive binding, and EC50 's for concentration response curves) were calculated by non-linear regression using Prism (version 2.01, GraphPAD Software, San Diego, Calif.).
On the technique in general: GTPγS is a poorly hydrolysed GTP analogue; its binding reports G protein activation.

Assay [4] deals with T1, C1a receptor (C1a-type calcitonin receptor). The assay is described as follows: C1a/293 competitive binding, displacement of [125I]-human calcitonin (Example C). The settings on record: HEK293 plasma membranes (C1a/293), [125I]-human calcitonin 20 pM. On the procedure: Peptide compounds of the present invention may be evaluated for binding to the C1a receptor using the procedures described in Example C. The C1a receptor is the predominant mammalian calcitonin receptor subtype. C1a pcDNA construction and transfection were carried out as previously described (Albrandt et al. 1993, FEBS Letters, 325:225-232). HEK293 cell lines showing stable expression of the rat C1a-type calcitonin receptor (C1a/293) or the human C1a-type calcitonin receptor (1154/293) were selected by G418 resistance and limiting dilution culture methods. Plasma membranes were collected from homogenized HEK293 cells and used in the receptor binding assay. Individual test peptides at concentrations spanning 6 log units starting at around 10^-6 M were examined for their ability to displace [^125 I]-human calcitonin from the plasma membrane preparation using a 96-well microtiter plate format and scintillation counting with a Wallac LKB Beta plate counter. Competitive binding curves were constructed. Non-specific binding was measured in the presence of 100 nM calcitonin. Peptide potencies (IC50 's for competitive binding) were calculated by non-linear regression using Prism™ (version 2.01, GraphPAD Software, San Diego, Calif.).
C1a/293 Competitive Binding Studies:
Compounds were evaluated for competition in binding to the C1a receptor as follows:
as §1
Methods for C1a pcDNA construction and transfection have been previously described (Albrandt, et al. 1993). HEK293 cell lines stably expressing the rat C1a-type calcitonin receptor (C1a/293) or the human C1a-type calcitonin receptor (1154/293) were selected by G418 resistance and limiting dilution culture methods.
as §2
Assay buffer contained 5 μg/mL bestatin, 1 μg/mL phosphoramidon, 1 mg/mL bovine serum albumin (fraction V), 1 mg/mL bacitracin, 1 mM MgCl2, and 20 mM HEPES, pH 7.4. Membranes (2-5 μg membrane protein/well), [^125 I]-human calcitonin (20 pM), and peptides were combined in 200 μL buffer in 96-well microtiter plates. After a 60 minute incubation at room temperature, well contents were harvested onto polyethyleneimine-treated GF/B glass fiber pads using a Tomtec Mach II plate harvestor (Hamden, Conn.). Dried pads were combined with scintillant and counted on a Wallac LKB Beta Plate scintillation counter (Gaithersburg, Md.). For competitive binding curves, samples were run in duplicate over a 6 log concentration range starting at 10^-6 or 10^-7 M. Non-specific binding was measured in the presence of 100 nM human calcitonin.
For orientation: Displacement assays read how much labelled ligand stays bound in the presence of the test substance.

On to “rat calcitonin (CGNLSTCMLGTYTQDLNKFHTFPQTSIGVGAP; ends and bridges not checked; cysteine pairing not given here; UniProt P01257 85-116, looked up)”, for which the “Inhibition of gastric emptying (in words)” value (shortened to “Inhibition … (in words)”) in assay [1] (dose response) is “dose-dependently inhibit gastric emptying”.
On the same count and under the same terms, under salmon calcitonin stands “dose-dependently inhibit gastric emptying”.
On to “amylin (KCNTATCATQRLANFLVHSSNNFGAILSSTNVGSNTY-NH2; not fully specified (bridges); cysteine pairing not given here; UniProt P10997 34-70, looked up)”, for which the “Lowering of plasma calcium” value in assay [2] was “up to 20%”. Besides, the “Inhibition … (in words)” value in assay [1] (dose response) was “dose-dependently inhibit gastric emptying”.
For rat amylin, the “Inhibition … (in words)” value in assay [1] (dose response) was “dose-dependent suppression of gastric emptying”. For the same compound, the “ED50 for inhibition of gastric emptying” value in assay [1] (diabetic BB rats fasted 6 hours, subcutaneous bolus 5 minutes before gavage) was 2.2 µg. In addition, the “Suppression of gastric emptying” value is “complete” in assay [1] (diabetic rats, 10 μg subcutaneous) and “complete” in assay [1] (normal HSD rats, 1 μg subcutaneous). Moreover, the “Example D ED50” value in assay [1] (inhibition of gastric emptying, conscious rats, phenol red, 20 min after gavage) amounted to 0.26 µg.
Take “Adrenomedullin (YRQSMNNFQGLRSFGCRFGTCTVQKLAHQIYQFTDKDKDNVAPRSKISPQGY; ends and bridges not checked; cysteine pairing not given here; UniProt P35318 95-146, looked up)”: the “Inhibition … (in words)” value in assay [1] (highest doses (100 μg)) is on record as “does not inhibit gastric emptying”.
For the compound `CC(C)C[C@H](NC(=O)[C@H](CCCNC(=N)N)NC(=O)[C@H](CCC(N)=O)NC(=O)[C@@H](NC(=O)[C@H](C)NC(=O)[C@@H]1CSSC[C@H](NC(=O)[C@@H](N)CCCCN)C(=O)N[C@@H](CC(N)=O)C(=O)N[C@@H]([C@@H](C)O)C(=O)N[C@@H](C)C(=O)N[C@@H]([C@@H](C)O)C(=O)N1)[C@@H](C)O)C(=O)N[C@@H](C)C(=O)N[C@@H](CC(N)=O)C(=O)N[C@@H](Cc1ccccc1)C(=O)N[C@@H](CC(C)C)C(=O)N[C@H](C(=O)N[C@@H](CCCNC(=N)N)C(=O)N[C@@H](CO)C(=O)NCC(=O)N[C@@H](Cc1ccc(O)cc1)C(N)=O)C(C)C` [Example 9] (H-KCNTATCATQRLANFLVRSGY-NH2; disulfide 2-7), the EC50 in assay [3] amounted to 8.6 nM. In assay [4], the IC50 (in general, the concentration that gives 50% inhibition) is 4.1 nM.
